Results: US20240325533A1, “MODIFIED IMMUNE CELLS AND METHODS OF USING THE SAME” (Beam Therapeutics Inc., priority 2021, published 2024)

Assays:
EGFR-specific CAR = assay: CAR expression by flow cytometry after editing (anti-idiotype antibody staining); assay type: cell-based, human
From the text: FIGS. 4A-4C provide flow cytometry graphs and bar graphs. FIGS. 4A and 4B depict CAR expression after editing A2A, HIF1α, and A2B target sites in CAR-T cells using guides. FIG. 4A provides flow cytometry graphs depicting CAR expression controls for electroporation (EP) only and untransduced (UTD) CAR-T cells. FIG. 4B are flow cytometry graphs depicting CAR expression of edited A2AR target sites using guides g145, g155, and Cas9 (top), edited HIF1α target sites using guides g168, g170, and g173 (middle), and edited A2B target sites using guides g221, g222, and Cas9 (bottom). FIG. 4C is a bar graph quantifying the CAR expression observed in the flow cytometry graphs of FIG. 4B. Consistent 60% CAR expression was seen across all guides and editing targets. There was no observed impact of editing on CAR expression.
FIG. 19A provides a bar graph showing base editing of the ADORA2A gene quantified via next generation sequencing (NGS). […] FIG. 19D provides a schematic providing an overview of a process for generating multiplex base edited EGFR-targeting ARC T cells. In FIG. 19B, each set of three bars correspond to, from left-to-right, TCR, HLA Class I, and HLA Class II. In FIGS. 19A-19D, “Base Editing Guide 1” […] indicates cells edited using the base editor ABE8.20 in combination with the guide sgRNA145 (see Table 1A), “Base Editing Guide 2” (BE2) indicates cells edited using the base editor ABE8.20 in combination with the guide sgRNA155, and “CRISPR Guide” indicates cells edited using a CRISPR guide and editor known to be effective in knocking out expression of A2AR.
FIG. 25 provides a set of flow cytometry scatter plots showing chimeric antigen receptor expression in EGFR-targeting CAR-T cells edited to knock out expression of the indicated polypeptides (i.e., A2AR, PD1, TGFbRII, or combinations thereof). At the end of culturing, T cells were stained with an anti-idiotype antibody. […] was knocked out using the guide TSBTx2043, PD1 expression was knocked out using the guide TSBTx025, TGFbR expression was knocked out using the guide TSBTx5277, and “Triple KO” cells were editing using all three guides (see Table 1B).

pCREB = pCREB expression (flow cytometry) in A2AR knockout T cells treated with CADO; assay type: cell-based; conditions: 30 μM CADO vs DMSO, FIG. 14
Experimental: FIG. 14 provides histograms depicting expression of pCREB in A2AR knockout T cells using guides g145 and g155. Cas9 and Electroporation (EP) only were used as controls. In the plots, the darker-grey histogram corresponds to DMSO and the lighter-grey histogram corresponds to 30 μM CADO. […] Throughout the figures, the term “CADO” represents 2-chloroadenosine.
FIGS. 20A-20E provide flow cytometry histograms, bar graphs, a plot, and images showing adenosine-resistant CAR-T cells (CAR-T cells) were protected from adenosine-mediated suppression in vitro. […] H266 cells expressing GFP were plated in ultra-low adherent 96-well plates and incubated at 36° C. for 3 days to allow for spheroid formation. Then, untransduced cells (UTD), ARC T cells, or CAR T cells expressing TCR, HLA Class I, HLA Class II, and ADAR were added to the wells at a 1:2 effector to target ratio (E:T) with 0 μM adenosine. Plates were then placed in an Incucyte live imaging analysis instrument and cytotoxicity was measured via reduction in GFP+ spheroid volume over time. […]

IFNγ production = IFNγ production of A2AR knockout T cells in the presence of CADO / extracellular adenosine; assay type: cell-based; conditions: normalized to 0 μM CADO (DMSO only), FIG. 15
Experimental: FIG. 15 presents bar graphs depicting IFNγ production after 48 hours in A2AR knockout T cells using guides g145 and g155. The data shown in FIG. 15 is normalized to IFNγ production in 0 μM CADO (DMSO only treatment). A2A knockout protected CAR-T cells from adenosine-mediated cytokine suppression.
FIGS. 20A-20E provide flow cytometry histograms, bar graphs, a plot, and images showing adenosine-resistant CAR-T cells (CAR-T cells) were protected from adenosine-mediated suppression in vitro. […] H266 cells expressing GFP were plated in ultra-low adherent 96-well plates and incubated at 36° C. for 3 days to allow for spheroid formation. Then, untransduced cells (UTD), ARC T cells, or CAR T cells expressing TCR, HLA Class I, HLA Class II, and ADAR were added to the wells at a 1:2 effector to target ratio (E:T) with 0 μM adenosine. Plates were then placed in an Incucyte live imaging analysis instrument and cytotoxicity was measured via reduction in GFP+ spheroid volume over time. In FIGS. 19A-19D, “BE KO1” indicates cells edited using the base editor ABE8.20 in combination with the guide sgRNA145 (see Table 1A), “BE KO2” indicates cells edited using the base editor ABE8.20 in combination with the guide sgRNA155, and “CRISPR KO” indicates cells edited using a CRISPR guide and editor known to be effective in knocking out expression of A2AR.

SKOV3 or H226 cells = assay: IFNγ production of EGFR CAR-Ts with HIF1α edits co-cultured with tumor cells in 1% O2; assay type: cell-based; conditions: 1 to 1 E:T ratio, 1% O2, 48 hours, vs unedited EGFR CAR-T cells, FIG. 10
Experimental: FIG. 10 provides bar graphs depicting IFNγ production (pg/mL) after EGFR CAR-Ts with HIF1α edits were co-cultured at 1 to 1 E:T ratio with either SKOV3 or H226 cells in 1% O2 for 48 hours. HIF1α was edited using guides g170 and g173. Electroporation (EP) only was used as a control. EGFR CAR-T cells with HIF1α knockout edits produced more cytokine under hypoxic stress than unedited EGFR CAR-T cells.

[1] = after editing A2A, HIF1α, and A2B target sites in CAR-T cells, FIG. 4C

Row | Substance | CAR expression (EGFR-specific CAR; EGFR-targeting CAR-T cells with A2AR, PD1, TGFbRII knock-out or combinations, anti-idiotype antibody, FIG. 25) | upregulation of downstream pCREB (pCREB) | IFNγ production after 48 hours (adenosine-mediated cytokine suppression) (IFNγ production) | CAR expression (EGFR-specific CAR; [1]) | IFNγ production (SKOV3 or H226 cells)
1 | TSBTx5277: guide used with Cas12b to knock out TGFbR2 (guide CCCAGAGCACCAGAGCCAUGGA; listed as RNA, chemistry not given here) | No differences | – | – | – | –
2 | UCUCCCCAGGUACAAUGGCU (chemistry not given here) [sgRNA155, guide RNA spacer; A2AR; ABE (ABE8.20); Ex2 SA (Pos 8)] | – | no upregulation | protected | 60% | –
3 | CUGCUCACCGGAGCGGGAUG (chemistry not given here) [sgRNA145, guide RNA spacer; A2AR; CBE; Ex1 SD (Pos 8)] | – | no upregulation | protected | 60% | –
4 | ACACAGGUAUUGCACUGCAC (chemistry not given here) [sgRNA170, guide RNA spacer; HIF1α; ABE; Ex6 SA (Pos 5)] | – | – | – | 60% | more cytokine
5 | UUUCAGAACUACAGUUCCUG (chemistry not given here) [sgRNA173, guide RNA spacer; HIF1α; ABE (ABE8.20); Ex13 SA (Pos 5)] | – | – | – | 60% | more cytokine
6 | GGCCAUGCUGCUGGAGACAC (chemistry not given here) [sgRNA221, guide RNA spacer; A2BR; ABE; Ex1 START (Pos 5)] | – | – | – | 60% | –
7 | UGUUUACAGUUUGAACUAAC (chemistry not given here) [sgRNA168, guide RNA spacer; HIF1α; ABE; Ex4 SA (Pos 8)] | – | – | – | 60% | –
8 | UCACCUGAGCGGGACACAGA (chemistry not given here) [sgRNA222, guide RNA spacer; A2BR; Ex1 SD (Pos 4); used with CBE] | – | – | – | 60% | –
